Assay results from paper PMC2843921 (ACS chemical neuroscience, 2010).
Where a name gives a salt, the structure may show the parent alone. Non-standard residues stand in square brackets, D forms with d. Residues, ends and D or L forms follow the SMILES beside them. *: point of attachment. Dmt = Cc1cc(O)cc(C)c1C[C@H](N)C(=O)O; dTic = O=C(O)[C@H]1Cc2ccccc2CN1; NHBn = c1ccc(CN*)cc1

Tests used:
[1] = target: T1, human δ opioid receptor (Homo sapiens, UniProt P41143); test: Stimulation of [35S]GTPγS binding, δ; format: biochemical; details: for Emax: read-out: Agonism δ Emax (%)
T1 sequence (P41143 whole entry): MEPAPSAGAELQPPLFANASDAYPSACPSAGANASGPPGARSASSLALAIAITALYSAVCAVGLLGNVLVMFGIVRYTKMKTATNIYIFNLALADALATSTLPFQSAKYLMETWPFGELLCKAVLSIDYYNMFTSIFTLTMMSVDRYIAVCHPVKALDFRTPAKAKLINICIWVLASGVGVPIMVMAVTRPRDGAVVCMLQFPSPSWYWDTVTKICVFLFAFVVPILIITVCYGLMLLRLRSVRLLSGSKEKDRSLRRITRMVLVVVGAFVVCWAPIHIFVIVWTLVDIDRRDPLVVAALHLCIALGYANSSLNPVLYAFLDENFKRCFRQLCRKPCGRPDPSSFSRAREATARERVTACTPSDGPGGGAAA

[2] = target: T1, human δ opioid receptor; test: Inhibition of SNC 80-stimulated [35S]GTPγS binding, δ; format: biochemical; details: in presence of 10 nM SNC 80; NI = No inhibition
[3] = target: T2, human μ opioid receptor (Homo sapiens, UniProt P35372); test: Stimulation of [35S]GTPγS binding, μ; format: biochemical; details: for Emax: read-out: Agonism μ Emax (%)
T2 sequence (P35372 whole entry): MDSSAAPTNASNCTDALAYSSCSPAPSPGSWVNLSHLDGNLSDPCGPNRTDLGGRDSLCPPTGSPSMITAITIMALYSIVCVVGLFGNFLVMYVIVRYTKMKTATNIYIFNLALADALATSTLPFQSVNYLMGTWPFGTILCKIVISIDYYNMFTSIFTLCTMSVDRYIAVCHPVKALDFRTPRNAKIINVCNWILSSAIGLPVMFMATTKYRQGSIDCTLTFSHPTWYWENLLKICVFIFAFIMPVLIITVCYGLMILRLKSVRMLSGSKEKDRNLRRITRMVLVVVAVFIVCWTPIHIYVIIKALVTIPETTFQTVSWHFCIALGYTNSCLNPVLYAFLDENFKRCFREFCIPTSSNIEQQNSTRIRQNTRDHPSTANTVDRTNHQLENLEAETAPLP

[4] = target: T2, human μ opioid receptor; test: Inhibition of DAMGO-stimulated [35S]GTPγS binding, μ; format: biochemical; details: for Antagonism μ Imax (%): in presence of 200 nM DAMGO, NI = No inhibition
[5] = system: GPI; details: read-out: GPI EC50; cited from earlier work
[6] = system: MVD; details: read-out: MVD EC50; cited from earlier work

| Compound | Emax [1] | Antagonism δ Imax (%) [2] | Emax [3] | EC50 [3] | inhibition at 25 µM ([4]; read-out: Antagonism μ inhibition of DAMGO-stimulated [35S]GTPγS binding (%)) | Antagonism μ Imax (%) [4] | EC50 [1] | EC50 [5] | EC50 [6] |
| --- | --- | --- | --- | --- | --- | --- | --- | --- | --- |
| Cc1cc(O)cc(C)c1C[C@H](N)C(=O)N1Cc2ccccc2C[C@H]1C(=O)NCC(=O)N1CCc2ccccc2C1 [Compound 8, TFA·H-Dmt-Tic-Gly-1,2,3,4-tetrahydroisoquinoline] | -1.4 ± 0.14% | 99±3.3% | 43 ± 6.6% | – | – | – | – | – | – |
| Cc1ccc(CNC(=O)CNC(=O)[C@@H]2Cc3ccccc3CN2C(=O)[C@@H](N)Cc2c(C)cc(O)cc2C)cc1 [Compound 4, TFA·H-Dmt-Tic-Gly-NH-Bzl(pMe)] | 0.4 ± 1.43% | 86±5.0% | 34 ± 6.4% | 63 ± 3.5 nM | 65 ± 1.1% | – | – | – | – |
| Cc1cc(O)cc(C)c1C[C@H](N)C(=O)N1Cc2ccccc2C[C@H]1C(=O)NCC(=O)NCc1ccc(Cl)cc1 [Compound 3, TFA·H-Dmt-Tic-Gly-NH-Bzl(pCl)] | 4.5 ± 0.85% | 93±2.2% | 52 ± 5.5% | 33 ± 2.9 nM | – | 43±3.3% | – | – | – |
| Cc1cc(O)cc(C)c1C[C@H](N)C(=O)N1Cc2ccccc2C[C@@H]1C(=O)NCC(=O)NCc1ccccc1 [Compound 2, TFA·H-Dmt-D-Tic-Gly-NH-Bzl] (H-[Dmt]-[dTic]-Gly-NHBn) | 44 ± 6.1% | – | 92 ± 4% | 0.9 ± 0.032 nM | – | – | 2.8 ± 0.6 nM | – | – |
| Cc1cc(O)cc(C)c1C[C@H](N)C(=O)N1Cc2ccccc2C[C@H]1C(=O)NCC(=O)NCc1ccc([N+](=O)[O-])cc1 [Compound 5, TFA·H-Dmt-Tic-Gly-NH-Bzl(pNO2)] | 3.1 ± 0.43% | 79±3.8% | 16 ± 2.5% | 61 ± 15 nM | – | 74±6.9% | – | – | – |
| Cc1cc(O)cc(C)c1C[C@H](N)C(=O)N1Cc2ccccc2C[C@H]1C(=O)NCC(=O)NCc1ccc(N)cc1 [Compound 6, 2TFA·H-Dmt-Tic-Gly-NH-Bzl(pNH2)] | 13 ± 1% | 78±2.7% | – | – | – | – | – | – | – |
| Cc1cc(O)cc(C)c1C[C@H](N)C(=O)N1Cc2ccccc2C[C@H]1C(=O)NCC(=O)NC(c1ccccc1)c1ccccc1 [Compound 7, TFA·H-Dmt-Tic-Gly-NH-Benzhydryl] | -1.9 ± 0.17% | 100±7.4% | 45 ± 1.2% | 4.8 ± 0.16 nM | – | – | – | – | – |
| H-Dmt-Tic-Gly-Ph | – | – | – | – | – | – | – | 2.57 nM | 3.02 nM |
